Results published in patent US20210251218A1, “BIO-HERBICIDE BASED ON ESSENTIAL OIL” (Université de Liège, priority 2018, published 2021).

Test system: Bryophyte (adult stage)
Assay: Essay 1: post-emergence activity on Bryophyte
Format: in vivo
Settings: spraying 100 ml/m^2; 7 days after treatment; score 0 = healthy plant, 6 = dead plant; FIG. 3
Procedure: In order to assess the post-emergence activity of compositions according to the invention on Bryophyte (adult stage), different compositions according to the invention (HE1 and HE2—see Table 3) were tested by spraying (100 ml/m^2) on Bryophytes (adult stage). Pelargonic acid at a concentration of 30 g/L (PA) (Compo®) was used as a positive control and a composition without the active substance (essential oil) (SSA) was also tested. [table] For Bryophytes, it is recognized that the score of 0 represents a healthy and undamaged plant while a score of 6 represents a dead plant. These scores were determined 7 days after treatment with the different compositions.

## CCCCCCCCC(=O)O [pelargonic acid]
  toxicity score: 6
